Counter-ions that a name gives are not always drawn. Numbered stars: 1 amine (or outer) side, 2 acyl side, 3 side chain; on linkers, the order of the positions; unused ones are H or OH. Square brackets hold non-standard residues; d marks the D form. Peptide text beside a SMILES is read from it. Ahppa(3S,4S) = O=C(C[C@H](O)[C@H](Cc1ccccc1)N[*:1])[*:2]; ACHPA = O=C(C[C@H](O)[C@H](CC1CCCCC1)N[*:1])[*:2]; Tic = O=C(O)[C@@H]1Cc2ccccc2CN1

The target of this assay is T1, HIV protease (Human immunodeficiency virus type 1 group M subtype B, UniProt P04585).
T1 construct: HIV protease was expressed in E. coli and purified to ca. 50% purity; made in house; host or cells: E. coli
The assay is described as follows: Recombinant HIV Protease HPLC Assay. The conditions noted are these: recombinant HIV protease expressed in E. coli; substrate VSFNFPQITL-NH2; pH 6 buffer; 37° C. for 1 h; HPLC quantification. Type of assay: biochemical. From the text:
The procedure is based on the capacity of the test compound to inhibit enzymatic cleavage by HIV protease of a decapeptide (the substrate) having an amino acid sequence which includes a known HIV protease cleavage site of the HIV polyprotein; see H. G. Krausslich et al., Proc. Natl. Acad. Sci. USA, 86, 807 (1989). Details of this assay together with the results obtained for exemplified peptides of formula 1 are described in the examples hereinafter.
Recombinant HIV Protease HPLC Assay
Enzyme: HIV protease was expressed in E. coli and purified to ca. 50% purity according to the procedure described by H.-G. Krausslich et al., Proc. Natl. Acad. Sci. U.S.A., 86, 807 (1989). The enzyme was stored as 10 μL aliquots at -70° C. The aliquots were diluted to 1/10th of the original concentration with buffer prior to use (enzyme working solution).
Substrate: VSFNFPQITL-NH2, MW 1164, see Krausslich et al., supra, was used as substrate. The substrate was made into 10 mM stock in DMSO and stored at -20° C. Prior to use, the stock was diluted with buffer to give a 400 μM solution substrate working solution.
Buffer: 2-(4-Morpholino)ethanesulfonic acid (50 mM), NaCl (25 mM) and EDTA (5 mM) was dissolved in distilled H2 O (90 mL) and the solution was adjusted to pH6 with concentrated aqueous NaOH. The latter solution was diluted to 100 mL with H2 O to give the buffer.
Procedure: (1) The test compound was dissolved in DMSO to give a solution having 40× the final concentration of the test compound in the assay mixture (see step 2) so that the amount of DMSO in the assay mixture was 5% (v,v) or less. (2) The assay mixture was prepared by mixing 10 μL of the substrate working solution, 0.5 μL of the solution of the test compound in DMSO from step 1, and 10 μL of the enzyme working solution. (3) The assay mixture was incubated at 37° C. for 1h. (4) The reaction was quenched by adding 100 μL of 2% aqueous TFA. (5) The substrate and products (i.e. VSFNF and PQITL-NH2) were separated by subjecting 100 μL of the quenched assay mixture to HPLC using Nucleosil ® C18 column with a 26-min linear gradient at 1 mL/min from 11% to 70% acetonitrile in H2 O with 0.05% aqueous TFA. Elution was monitored at 210 nm. (6) A control which was the assay mixture without the test compound, was subjected simultaneously to steps 3 to 5.
Inhibition Studies: Cleavage products and remaining parent substrate were quantified by either peak height or by integration of the appropriate HPLC peaks. Substrate conversion was calculated using the following relationship: [formula] Enzyme inhibition of the test compound was calculated as follows: [formula]
The concentration of the test compound which causes a 50% inhibition of the HIV-protease, i.e. the IC50, was determined as follows: The percent inhibition of the enzyme was determined for a minimum of three different concentrations of the test compound. Thereafter, the IC50 was determined graphically by plotting the percent inhibition of the substrate against the concentration of the test compound.
What is called IC50 is the concentration at which inhibition is half-maximal. Consider “THIQ-Val-Cha.psi.[CH2 NH]Leu-Leu-Phe-NH2.HCl [Example 20]”, for which the IC50 stood at 80 nM. In the case of “THIQ-Val-ACHPA-Ala-Phe-NH2.HCl [Example 7]”, the IC50 stood at 17 nM. The result for `CC(C)C[C@H](NC(=O)C[C@H](O)[C@H](CC1CCCCC1)NC(=O)[C@H](C)NC(=O)[C@@H]1Cc2ccccc2CN1)C(=O)N[C@@H](Cc1ccccc1)C(=O)O` [Example 14, THIQ-Ala-ACHPA-Leu-Phe-OH.HCl] (H-[Tic]A[ACHPA]LF-OH) reads 200 nM; that for `CC(C)C[C@H](NC(=O)C[C@H](O)[C@H](Cc1ccccc1)NC(=O)[C@@H](NC(=O)[C@@H]1Cc2ccccc2CN1)C(C)C)C(=O)N[C@@H](Cc1ccccc1)C(N)=O` [Example 16, THIQ-Val-AHPPA-Leu-Phe-NH2.HCl] (H-[Tic]V[Ahppa(3S,4S)]LF-NH2), 25 nM; that for “N-[N-[N-[N-[3-(1,2,3,4-Tetrahydroisoquinolyl)carbonyl]-L-alanyl]-4(S)-amino-3(S)-hydroxy-5-cyclohexylpentanoyl]-L-leucyl]-L-phenylalaninamide Hydrochloride [Example 1]”, 90 nM.
